From patent US20260115250A1, “METHODS OF TREATING AGE-RELATED MACULAR DEGENERATION” (Character Biosciences, Inc., priority 2022, published 2026)
Peptide text beside a SMILES is read from it.

How the values were obtained:
[1] = target: T1, LDLR (Homo sapiens, UniProt P01130); experiment: KD (µM)
Text: First copying reader's note: Left of three side-by-side panels of FIG. 23; the KD cells hold value ± error together. Where the first naming reader finds the target: description_of_the_figure: FIG. 23 is a table showing the binding kinetics results of LDLR binding assays (SPR)

[2] = target: T1, LDLR; experiment: KD, Peptide (μM)
Text: Title: Buffer: HBS + 0.005% P20
Head of the field: KD, Peptide (μM)
First copying reader's note: KD values are for binding to LDLR by SPR, peptide alone versus peptide:DMPC lipid complex; the table continues on FIG. 24B.

T1 sequence (P01130 22-860 limits assumed): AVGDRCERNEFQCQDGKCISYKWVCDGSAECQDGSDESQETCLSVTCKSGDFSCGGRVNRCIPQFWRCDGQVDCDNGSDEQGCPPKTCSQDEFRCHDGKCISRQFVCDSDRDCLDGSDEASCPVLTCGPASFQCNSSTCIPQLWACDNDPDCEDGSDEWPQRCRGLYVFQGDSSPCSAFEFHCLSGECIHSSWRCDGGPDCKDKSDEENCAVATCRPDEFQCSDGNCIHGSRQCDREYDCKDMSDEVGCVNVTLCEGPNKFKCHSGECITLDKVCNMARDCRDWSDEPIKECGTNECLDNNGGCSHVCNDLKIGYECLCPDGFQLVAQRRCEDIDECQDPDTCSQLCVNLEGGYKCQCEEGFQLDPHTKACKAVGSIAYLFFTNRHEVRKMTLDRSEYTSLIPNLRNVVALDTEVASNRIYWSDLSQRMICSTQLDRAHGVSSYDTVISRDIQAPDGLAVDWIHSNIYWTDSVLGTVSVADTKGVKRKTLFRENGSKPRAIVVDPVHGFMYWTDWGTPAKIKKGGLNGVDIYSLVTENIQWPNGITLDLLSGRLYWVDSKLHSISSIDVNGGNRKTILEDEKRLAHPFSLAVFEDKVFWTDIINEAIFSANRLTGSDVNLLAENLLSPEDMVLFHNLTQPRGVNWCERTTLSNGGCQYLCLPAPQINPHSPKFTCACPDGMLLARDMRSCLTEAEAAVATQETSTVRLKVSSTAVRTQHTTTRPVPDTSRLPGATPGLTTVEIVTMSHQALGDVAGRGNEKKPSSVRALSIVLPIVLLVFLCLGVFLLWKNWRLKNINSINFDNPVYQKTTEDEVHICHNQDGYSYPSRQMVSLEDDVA

CC(C)C[C@H](NC(=O)[C@H](CCCNC(=N)N)NC(=O)[C@H](CCCCN)NC(=O)[C@H](CCC(N)=O)NC(=O)[C@H](CC(C)C)NC(=O)[C@H](CC(=O)O)NC(=O)[C@H](CC(=O)O)NC(=O)[C@H](C)NC(=O)[C@H](CC(=O)O)NC(=O)[C@H](CCCNC(=N)N)NC(=O)[C@H](CC(C)C)NC(=O)[C@H](CC(C)C)NC(=O)[C@H](CCCNC(=N)N)NC(=O)[C@H](CCCCN)NC(=O)[C@H](CCCNC(=N)N)NC(=O)[C@H](CC(C)C)NC(=O)[C@H](CCCCN)NC(=O)[C@H](CCCNC(=N)N)NC(=O)[C@H](CC(C)C)NC(=O)[C@@H](N)Cc1c[nH]cn1)C(=O)N[C@@H](C)C(=O)N[C@H](C(=O)N[C@@H](Cc1ccc(O)cc1)C(=O)N[C@@H](CCC(N)=O)C(=O)N[C@@H](C)C(=O)O)C(C)C [T-045] (H-HLRKLRKRLLRDADDLQKRLAVYQA-OH; N-terminus and C-terminus assumed)
Kd [1]: 71.2 ± 31.8 µM
Kd [2]: 11800 ± 1250 µM

CC(C)C[C@H](NC(=O)[C@H](CCCNC(=N)N)NC(=O)[C@H](CCCCN)NC(=O)[C@H](CCC(N)=O)NC(=O)[C@H](CC(C)C)NC(=O)[C@H](CC(=O)O)NC(=O)[C@H](CC(=O)O)NC(=O)[C@H](C)NC(=O)[C@H](CC(=O)O)NC(=O)[C@H](CCCNC(=N)N)NC(=O)[C@H](CC(C)C)NC(=O)[C@H](CC(C)C)NC(=O)[C@H](CCCNC(=N)N)NC(=O)[C@H](CCCCN)NC(=O)[C@H](CCCNC(=N)N)NC(=O)[C@H](CC(C)C)NC(=O)[C@H](CCCCN)NC(=O)[C@H](CCCNC(=N)N)NC(=O)[C@H](CC(C)C)NC(=O)[C@@H](N)Cc1c[nH]cn1)C(=O)N[C@@H](C)C(=O)N[C@H](C(=O)N[C@@H](Cc1ccc(O)cc1)C(=O)N[C@@H](CCC(N)=O)C(=O)N[C@@H](C)C(=O)NCC(=O)N[C@@H](C)C(=O)N[C@@H](CCCNC(=N)N)C(=O)N[C@@H](CCC(=O)O)C(=O)NCC(=O)N[C@@H](C)C(=O)N[C@@H](CCC(=O)O)C(=O)N[C@@H](CCCNC(=N)N)C(=O)O)C(C)C [T-043] (H-HLRKLRKRLLRDADDLQKRLAVYQAGAREGAER-OH; N-terminus and C-terminus assumed)
Kd [1]: 48.6 µM
Kd [2]: 840 ± 1150 µM
